As usually defined, the EC50 is the midpoint of the concentration-response curve. One may read the Emax as the maximal effect, on the per cent scale that the assay sets.

These results are taken from ChEMBL document CHEMBL4739717, “Methods of treating cartilage disorders through inhibition of clk and dyrk” (2020).

Some results are limits rather than exact numbers.

The nature of assay [1]: Inhibition of IL1-beta induced MMP3 expression levels in human chondrocytes assessed as MMP3 levels incubated for 2hrs followed by IL1-beta stimulation and measured after overnight incubation by LANCE assay relative to control. It is filed as functional, Chondrocyte. In general terms: Time-resolved FRET reads energy transfer from a long-lived donor to a nearby acceptor.
Assay [2] addresses Dual specificity tyrosine-phosphorylation-regulated kinase 1A (Homo sapiens, UniProt Q13627). Description: Inhibition of recombinant DYRK1A (unknown origin) using Ser/Thr 18 peptide as substrate incubated for 1 hr in presence of ATP by FRET assay.
The target of assay [3] is Dual specificity protein kinase CLK3 (Homo sapiens, UniProt P49761). The assay can be described thus: Inhibition of recombinant CLK3 (unknown origin) using Ser/Thr 18 peptide as substrate incubated for 1 hr in presence of ATP by FRET assay.
Assay [4] can be described thus: Effect on Wnt signaling pathway in human SW480 cells harbouring TCF/LEF luciferase reporter gene and SP5-Luc reporter gene incubated for 36 to 48 hrs by luminescence assay. The format is cell-based. A general note: Reporter assays use an easily measured gene product as a stand-in for the process of interest.
A short description of assay [5]: Inhibition of IL1-beta induced MMP3 expression levels in human chondrocytes assessed as MMP3 levels incubated for 2hrs followed by IL1-beta stimulation and measured after overnight incubation by LANCE assay. It is filed as functional, cell-based. Conditions: Chondrocyte.
A short description of assay [6]: Induction of chondrogenesis in human MSC assessed as maximum activity at 30 nM incubated for 6 days by rhodamine B and Nile red staining based imaging analysis relative to control. It is filed as functional. The settings on record: BMMSC, 144 h, time 6 day.
Assay [7] concerns the target Dual specificity protein kinase CLK2 (Homo sapiens, UniProt P49760). Description: Inhibition of recombinant CLK2 (unknown origin) using Ser/Thr 6 peptide as substrate incubated for 1 hr in presence of ATP by FRET assay.
A short description of assay [8]: Induction of chondrogenesis in human MSC assessed as incubated for 6 days by rhodamine B and Nile red staining based imaging analysis. The format is functional. The settings on record: bmmsc.
Assay [9] is described as follows: Induction of chondrogenesis in human MSC assessed as maximum activity at 100 nM incubated for 6 days by rhodamine B and Nile red staining based imaging analysis relative to control. The settings on record: BMMSC, 144 h, time 6 day. It is filed as functional.
A short description of assay [10]: Induction of chondrogenesis in human MSC assessed as maximum activity at 10 nM incubated for 6 days by rhodamine B and Nile red staining based imaging analysis relative to control. The settings on record: BMMSC, 144 h, time 6 day. The format is functional.

Dual specificity protein kinase CLK3, sequence (P49761 whole entry): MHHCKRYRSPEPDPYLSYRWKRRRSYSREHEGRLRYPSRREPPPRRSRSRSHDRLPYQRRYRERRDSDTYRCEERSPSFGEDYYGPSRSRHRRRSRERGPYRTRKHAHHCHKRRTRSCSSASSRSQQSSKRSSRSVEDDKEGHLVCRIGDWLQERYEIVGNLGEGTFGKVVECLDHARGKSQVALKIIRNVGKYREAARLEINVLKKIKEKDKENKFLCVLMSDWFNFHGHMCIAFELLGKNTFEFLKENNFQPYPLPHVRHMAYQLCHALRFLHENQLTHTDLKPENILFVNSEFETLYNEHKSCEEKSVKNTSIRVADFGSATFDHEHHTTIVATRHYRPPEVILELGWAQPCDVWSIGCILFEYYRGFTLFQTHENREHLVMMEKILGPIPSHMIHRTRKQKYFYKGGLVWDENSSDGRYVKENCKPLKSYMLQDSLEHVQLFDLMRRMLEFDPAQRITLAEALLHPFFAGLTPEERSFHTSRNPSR
Dual specificity protein kinase CLK2, sequence (P49760 whole entry): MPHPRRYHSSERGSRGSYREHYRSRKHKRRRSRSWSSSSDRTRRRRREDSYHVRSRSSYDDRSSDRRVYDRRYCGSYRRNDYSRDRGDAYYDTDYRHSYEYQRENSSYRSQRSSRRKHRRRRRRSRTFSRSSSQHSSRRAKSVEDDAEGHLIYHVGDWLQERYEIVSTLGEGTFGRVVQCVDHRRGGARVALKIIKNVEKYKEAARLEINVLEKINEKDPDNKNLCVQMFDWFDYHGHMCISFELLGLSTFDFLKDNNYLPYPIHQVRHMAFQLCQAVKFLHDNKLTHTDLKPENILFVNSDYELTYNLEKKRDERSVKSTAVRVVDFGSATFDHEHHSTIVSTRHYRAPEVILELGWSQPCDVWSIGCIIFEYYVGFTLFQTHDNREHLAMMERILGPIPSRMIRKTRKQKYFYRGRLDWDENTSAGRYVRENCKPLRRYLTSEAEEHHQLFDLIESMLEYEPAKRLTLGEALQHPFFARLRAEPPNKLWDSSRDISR

`O=C(Nc1cncc(-c2ccc3[nH]nc(-c4nc5c(-c6cccc(F)c6)cccc5[nH]4)c3n2)c1)C1CC1`: the Imax in [1] came out at 70%. Moreover, the EC50 was greater than 10000 nM in assay [2], greater than 10000 nM in [3], 1080 nM in assay [4] and 0.2 nM in assay [5].

For `O=C(Nc1cncc(-c2ccc3[nH]nc(-c4nc5c(-c6ccccn6)ccnc5[nH]4)c3n2)c1)c1ccccc1`, the Imax in assay [1] is reported as 67%. Also, the EC50 is greater than 10000 nM in [2], greater than 10000 nM in assay [3], greater than 10000 nM in assay [4] and 5.1 nM in [5].

In the case of `CCCC(=O)Nc1cncc(-c2cc3c(-c4nc5c(-c6ccsc6)cncc5[nH]4)n[nH]c3cn2)c1`, the EC50 in assay [2] came to 8 nM; in assay [3], 21 nM; in assay [7] it was 3 nM; in assay [4], 61.5 nM. Further, the maximal effect (Emax) at 0.03 µM in assay [6] was found to be 42%.

As to `CCC(=O)Nc1cncc(-c2ccc3[nH]nc(-c4cc5c(N6CCCCC6)nccc5[nH]4)c3c2)c1`, the EC50 in assay [8] turned out to be 10 nM; in [2] it was 5 nM; in assay [3] it was 52 nM; in [7], 1 nM; in [4] it was 445 nM. Besides, in assay [6], the Emax at 0.03 µM came out at 244%.

For `O=C(Nc1cc2cc(-c3cnco3)cnc2cn1)C1CCNCC1`, the EC50 in [2] was 40 nM; in assay [3] it was greater than 10000 nM; in assay [7], greater than 10000 nM; in assay [4], greater than 10000 nM; in assay [5] it was 35.8 nM.

For `O=C(CC1CCNCC1)Nc1cncc(-c2cnc3[nH]nc(-c4cc5c(-c6ccncc6)ccnc5[nH]4)c3c2)c1`, the EC50 in assay [2] is 21 nM; in assay [3], greater than 10000 nM; in assay [7], 11 nM; in assay [4], greater than 10000 nM. Also, the maximal response (Emax) at 0.03 µM in assay [6] is 26.7%.

On to `CN(C)CCNc1cc(F)cc(-c2cccc3[nH]c(-c4n[nH]c5ccc(-c6cncc(CN7CCCCC7)c6)nc45)cc23)c1`, for which the EC50 amounted to 40 nM in [2], 49 nM in assay [3], 4 nM in assay [7] and 1270 nM in [4]. In addition, the Emax at 0.03 µM in assay [6] stood at 48.5%.

On to `CC(C)CC(=O)Nc1cncc(-c2ccc3[nH]nc(-c4nc5c(-c6cccnc6)cncc5[nH]4)c3c2)c1`, for which the EC50 is 100 nM in assay [8], 12 nM in [2], 12 nM in assay [4] and 111 nM in [5]. In assay [1], the Imax was 100%. Besides, the maximal response (Emax) at 0.1 µM in assay [9] is 198%.

As for `COc1cncc(C#Cc2c[nH]nc2C(=O)Nc2ccc(OC3CCN(C)CC3)nc2)c1`, the Imax in [1] was determined as 3.4%. Further, the EC50 in assay [2] was 9 nM; in assay [3] it was greater than 10000 nM; in assay [4] it was 3570 nM; in assay [5], 3000 nM.

In the case of `CN(C)CCNc1cc(F)cc(-c2cccc3[nH]c(-c4n[nH]c5cnc(-c6cncc(NC(=O)C(C)(C)C)c6)cc45)cc23)c1`, the EC50 stood at 10 nM in [8]; 45 nM in [2]; 49 nM in [3]; 6 nM in assay [7]; 386 nM in [4]. In [6], the Emax at 0.03 µM came to 87.3%.

For `O=C(N[C@H]1C[C@@H]1c1ccccc1)c1n[nH]c2ccc(-c3cncc(CN4CCCCC4)c3)cc12`, the EC50 was found to be 1 nM in assay [2]; 717 nM in assay [3]; 8 nM in assay [7]; 1030 nM in [4]; 4 nM in assay [5].

In the case of `Cc1n[nH]c2ccc(-c3cncc(N[C@H](CO)Cc4cccc(C(F)(F)F)c4)n3)cc12`, the EC50 came to 45 nM in [2]; 3950 nM in [3]; 37 nM in assay [7]; 809 nM in [4]; 3000 nM in assay [5].

As for `CN(C)Cc1cncc(-c2cnc3[nH]nc(-c4cc5c(-c6cccc(F)c6)nccc5[nH]4)c3c2)c1`, the EC50 in [8] worked out at 10 nM; in assay [2], 91 nM; in [3], 74 nM; in assay [7], 4 nM; in assay [4] it was 1170 nM. Besides, the Emax at 0.01 µM in [10] was 110%.

In the case of `CN1CCC(C(=O)Nc2cc3cc(-c4cnsc4)cnc3cn2)CC1`, the EC50 in assay [3] is greater than 10000 nM; in [7] it was greater than 10000 nM; in assay [4], greater than 10000 nM; in assay [5], 3000 nM.

Take `O=C(Nc1cncc(-c2ccc3[nH]nc(-c4nc5c(-c6cccs6)cccc5[nH]4)c3n2)c1)C1CC1`: the Imax in assay [1] was determined as 72%. Further, the EC50 was greater than 10000 nM in assay [2], greater than 10000 nM in assay [3], 3380 nM in assay [4] and 6.7 nM in assay [5].

For `CN1CCN(c2cc(C(=O)Nc3cc4cc(-c5cncs5)ccc4cn3)ccn2)CC1`, the Imax in [1] worked out at 100%. In addition, the Emax at 0.03 µM in assay [6] is 22.3%. Also, the EC50 in assay [5] was 423 nM.

Take `O=C(N[C@H]1C[C@@H]1c1ccccc1)c1n[nH]c2ccc(-c3cccnc3)cc12`: the concentration for a half-maximal effect (EC50) is 4 nM in [2]; 6150 nM in assay [3]; 10 nM in [7]; 1390 nM in [4]; 1.6 nM in assay [5].

On to `Cc1n[nH]c2ccc(-c3cncc(NC4CCNCC4)n3)cc12`, for which the EC50 in assay [2] was 9 nM; in [3], 1420 nM; in [7] it was 1 nM; in assay [4], 256 nM; in assay [5] it was 1050 nM.

As for `O=C(Nc1c[nH]nc1C(=O)Nc1ccc(N2CCCC2)nc1)c1cncc(OC2CCNCC2)c1`, the Imax in assay [1] was found to be 80%. In addition, the EC50 in assay [2] was 9 nM; in assay [4], 2.5 nM; in [5] it was 3000 nM.

As to `Fc1cccc(-c2ccnc3[nH]c(-c4n[nH]c5ccc(-c6cncc(CN7CCC(F)(F)C7)c6)cc45)nc23)c1`, the EC50 turned out to be 10 nM in assay [8]; 80 nM in assay [2]; 90 nM in assay [3]; 21 nM in [7]; 19.1 nM in [4]. In addition, the Emax at 0.03 µM in assay [6] was 85.8%.

As for `c1cnc2cc(-c3n[nH]c4ccc(-c5cncc(CN6CCCCC6)c5)cc34)[nH]c2c1`, the Imax in assay [1] is reported as 100%. Moreover, the EC50 in assay [2] was found to be 5 nM; in [4], 165 nM; in assay [5] it was 319 nM.

As for `c1cncc(-c2ccc3[nH]nc(-c4nc5c(N6CCOCC6)cncc5[nH]4)c3c2)c1`, the Imax in assay [1] is 100%. In addition, the EC50 in [2] amounted to 2 nM; in assay [4], 23 nM; in assay [5] it was 13.6 nM. In addition, the maximum response (Emax) at 0.03 µM in assay [6] amounted to 90.4%.

As for `O=C(Nc1ccc(C(=O)N2CCCC2)nc1)c1n[nH]c2ccc(-c3cncc(CN4CCCCC4)c3)cc12`, the Imax in [1] was determined as 100%. The figures for the EC50 in assay [2], in assay [4] and in assay [5] were 1 nM, 30 nM and 3000 nM, respectively.

In the case of `Fc1ccc(-c2cncc3[nH]c(-c4n[nH]c5cnc(-c6cncc(CN7CCCC7)c6)cc45)nc23)s1`, the Imax in [1] turned out to be 81%. The EC50 was determined as 8 nM in assay [2], 470 nM in assay [4] and 3000 nM in [5].

Turning to `CO[C@H]1CC[C@H](C(=O)Nc2cc3cc(-c4cnn(C)c4CN4CCCCC4)ccc3cn2)CC1`, in assay [1], the Imax turned out to be 0.2%. Further, the EC50 in [2] stood at 2 nM; in assay [4], 471 nM; in assay [5] it was 3000 nM.

As for `COc1cncc(C#Cc2c[nH]nc2C(=O)Nc2ccc(OCCN3CCCC3)nc2)c1`, the Imax in [1] worked out at 2.4%. The EC50 in [2] is 19 nM; in [3] it was greater than 10000 nM; in assay [4], 1210 nM; in assay [5], 3000 nM.

Turning to `O=C(Nc1c[nH]nc1C(=O)Nc1cccnc1)c1cccnc1`, the Imax in assay [1] was 100%. In addition, the EC50 came out at 12 nM in assay [2], 20.5 nM in [4] and 38.9 nM in [5].

For the compound `Cc1n[nH]c2ccc(-c3cncc(O[C@H]4CCNC[C@H]4F)n3)cc12`, the EC50 in assay [8] turned out to be 30 nM; in assay [2], 21 nM; in assay [3], 1760 nM; in assay [7], 5 nM; in [4], 834 nM. For the same compound, in [6], the Emax at 0.03 µM worked out at 54.2%.

For `Cc1n[nH]c2ccc(-c3cncc(NCC4(F)CNC4)n3)cc12`, the Imax in assay [1] is on record as 100%. Moreover, the EC50 in [2] came out at 11 nM; in assay [4], 780 nM; in [5] it was 2270 nM.

In the case of `CN1CCN(c2ccc(C(=O)N3CCN(c4cc(C(=O)Nc5cc6cc(-c7cnn(C)c7)ccc6cn5)ccn4)CC3)cn2)CC1`, the figures for the EC50 in [7] and in [5] were 3 nM and 304 nM, respectively.

As for `CN1CCC(Oc2ccc3[nH]c(-c4n[nH]c5ccc(-c6cnn(C)c6)cc45)nc3c2)CC1`, in [1], the Imax came to 100%. For the same compound, the EC50 in assay [2] was determined as 2 nM; in assay [4], 18.3 nM; in [5] it was 170 nM.

As to `CCCC(=O)Nc1cncc(-c2ccc3[nH]nc(-c4nc5c(N6CCCCC6)cncc5[nH]4)c3c2)c1`, in assay [1], the Imax amounted to 39%. In addition, the EC50 in assay [2] is 14 nM; in assay [4] it was 42 nM; in assay [5], 20.5 nM. Moreover, the Emax at 0.03 µM in [6] amounted to 77.3%.

In the case of `Cn1ncc(-c2ccc3cnc(NC(=O)C4CCN(C(=O)c5ccccc5)CC4)cc3c2)c1CN1CCCCC1`, in [1], the Imax came out at 51%. Further, the EC50 in assay [2] was determined as 3 nM; in assay [4] it was 706 nM; in assay [5] it was 35 nM.
